{"source": "patent US9187464B2", "about": "“TRPV4 antagonists” (GlaxoSmithKline Intellectual Property (No. 2) Limited, priority 2011, dated 2015)", "target": "T1, human TRPV4 (Homo sapiens, UniProt Q9HBA0)", "T1 construct": "expressed in transfected cells; host or cells: HEK-293-MSR-II cells transduced with 1% BacMam virus", "T1 sequence (Q9HBA0 whole entry)": "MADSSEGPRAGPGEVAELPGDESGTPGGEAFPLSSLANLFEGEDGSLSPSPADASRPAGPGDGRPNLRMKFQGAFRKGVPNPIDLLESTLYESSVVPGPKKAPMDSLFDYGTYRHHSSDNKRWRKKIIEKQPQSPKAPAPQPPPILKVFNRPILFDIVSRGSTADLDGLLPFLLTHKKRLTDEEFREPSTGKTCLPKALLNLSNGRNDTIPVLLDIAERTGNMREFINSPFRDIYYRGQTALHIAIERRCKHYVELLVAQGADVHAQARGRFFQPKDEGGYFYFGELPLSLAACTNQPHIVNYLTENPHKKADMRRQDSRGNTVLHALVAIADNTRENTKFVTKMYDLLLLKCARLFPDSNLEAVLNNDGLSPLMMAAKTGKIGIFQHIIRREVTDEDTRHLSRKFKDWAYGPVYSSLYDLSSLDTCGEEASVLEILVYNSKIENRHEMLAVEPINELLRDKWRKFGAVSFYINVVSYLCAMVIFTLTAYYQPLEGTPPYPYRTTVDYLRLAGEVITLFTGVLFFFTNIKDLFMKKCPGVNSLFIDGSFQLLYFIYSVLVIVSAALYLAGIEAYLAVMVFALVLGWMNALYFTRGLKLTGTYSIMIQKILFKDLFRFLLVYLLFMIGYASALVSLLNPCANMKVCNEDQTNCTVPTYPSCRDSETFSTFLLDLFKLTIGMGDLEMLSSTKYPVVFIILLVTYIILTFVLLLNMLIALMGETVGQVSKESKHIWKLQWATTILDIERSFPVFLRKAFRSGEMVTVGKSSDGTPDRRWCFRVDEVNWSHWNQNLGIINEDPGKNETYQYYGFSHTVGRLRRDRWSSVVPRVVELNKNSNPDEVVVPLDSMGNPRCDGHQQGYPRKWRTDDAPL", "test": "Ligand-gated assay (Fluo4 calcium, FLIPR; inhibition of agonist-induced activation)", "format": "cell-based", "settings": "HEK-293-MSR-II cells transduced with BacMam human TRPV4; agonist at EC80", "experimental": "TRP channel activation/opening results in an influx of divalent and monovalent cations including calcium. The resulting changes in intracellular calcium were monitored using a calcium selective fluorescent dye Fluo4 (MDS Analytical Technologies). Dye loaded cells were initially exposed to test compound to verify a lack of agonist activity. Cells were subsequently activated by addition of an agonist and inhibition of the agonist-induced activation was recorded. Human embryonic kidney 293 cells stably expressing the macrophage scavenger receptor class II (HEK-293-MSR-II) and transduced with 1% BacMam (J. P. Condreay, S. M. Witherspoon, W. C. Clay and T. A. Kost, Proc Natl Acad Sci 96 (1999), pp. 127-132) virus expressing the human TRPV4 gene were plated at 15000 cells/well in a volume of 50 μL in a 384 well poly-D lysine coated plate. Cells were incubated for 24 hours at 37 degrees and 5% CO2. Media was then aspirated using a Tecan Plate-washer and replaced with 20 μL of dye loading buffer: HBSS, 500 uM Brilliant Black (MDS Analytical Technologies), 2 uM Fluo-4. Dye loaded plates were then incubated in the dark at room temperature for 1-1.5 hours. 10 μL of test compound diluted in HBSS (HBSS with 1.5 mM Calcium Chloride, 1.5 mM Magnesium Chloride and 10 mM HEPES. pH 7.4), +0.01% Chaps was added to the plate, incubated for 10 min at room temperature in the dark and then 10 μL of agonist was added at a final concentration equal to the agonist EC80. Calcium release was measured using the FLIPRtetra (MDS Analytical Technologies) or FLIPR384 (MDS Analytical Technologies).\nIC50 between 0.1-10 nM (+++), >10-50 nM (++), >50-500 nM (+).", "data": [{"smiles": "C[C@]1(Cn2cnc3ccc(C#N)cc32)CCC[C@@]2(CN(c3cc(C4CCC4)no3)C(=O)O2)C1", "note": "[Example 40, 1-(((5S,7S)-3-(3-cyclobutylisoxazol-5-yl)-7-methyl-2-oxo-1-oxa-3-azaspiro[4.5]decan-7-yl)methyl)-1H-benzo[d]imidazole-6-carbonitrile]", "values": [{"measurement": "IC50", "value": "10 to 50", "unit": "nM"}]}, {"smiles": "CC(C)(O)c1ncc(N2C[C@@]3(CCC[C@](C)(Cn4cnc5ccc(C#N)cc54)C3)OC2=O)cn1", "note": "[Example 148, 1-(((5S,7S)-3-(2-(2-hydroxypropan-2-yl)pyrimidin-5-yl)-7-methyl-2-oxo-1-oxa-3-azaspiro[4.5]decan-7-yl)methyl)-1H-benzo[d]imidazole-6-carbonitrile]", "values": [{"measurement": "IC50", "value": "10 to 50", "unit": "nM"}]}, {"smiles": "N#Cc1cc(Cl)cc(-n2cc(CN3C[C@@]4(CCC[C@H](Cn5cnc6ccc(C#N)cc65)C4)OC3=O)nn2)c1", "note": "[Example 99, 1-[((5S,7S)-3-{[1-(3-chloro-5-cyanophenyl)-1H-1,2,3-triazol-4-yl]methyl}-2-oxo-1-oxa-3-azaspiro[4.5]dec-7-yl)methyl]-1H-benzimidazole-6-carbonitrile]", "values": [{"measurement": "IC50", "value": "0.1 to 10", "unit": "nM"}]}, {"smiles": "N#Cc1ccc2ncn(C[C@H]3CCC[C@]4(C3)CN(Cc3cn(-c5cncc(C(F)(F)F)c5)nn3)C(=O)O4)c2c1", "note": "[Example 9, 1-{[(5S,7S)-2-Oxo-3-({1-[5-(trifluoromethyl)-3-pyridinyl]-1H-1,2,3-triazol-4-yl}methyl)-1-oxa-3-azaspiro[4.5]dec-7-yl]methyl}-1H-benzimidazole-6-carbonitrile]", "values": [{"measurement": "IC50", "value": "0.1 to 10", "unit": "nM"}]}, {"smiles": "COc1ccc(N2C[C@@]3(CCC[C@](C)(Cn4cnc5ccc(C#N)cc54)C3)OC2=O)nc1", "note": "[Example 135, 1-({(5S,7S)-7-methyl-3-[5-(methyloxy)-2-pyridinyl]-2-oxo-1-oxa-3-azaspiro[4.5]dec-7-yl}methyl)-1H-benzimidazole-6-carbonitrile]", "values": [{"measurement": "IC50", "value": "50 to 500", "unit": "nM"}]}, {"smiles": "C[C@]1(Cn2cnc3ccc(C#N)cc32)CCC[C@@]2(CN(Cc3ccc(F)cn3)C(=O)O2)C1", "note": "[Example 159, 1-(((5S,7S)-3-((5-fluoropyridin-2-yl)methyl)-7-methyl-2-oxo-1-oxa-3-azaspiro[4.5]decan-7-yl)methyl)-1H-benzo[d]imidazole-6-carbonitrile]", "values": [{"measurement": "IC50", "value": "0.1 to 10", "unit": "nM"}]}, {"smiles": "Cc1noc(C(C)(C)CN2C[C@@]3(CCC[C@H](Cn4cnc5ccc(C#N)cc54)C3)OC2=O)n1", "note": "[Example 74, 1-({(5S,7S)-3-[2-methyl-2-(3-methyl-1,2,4-oxadiazol-5-yl)propyl]-2-oxo-1-oxa-3-azaspiro[4.5]dec-7-yl}methyl)-1H-benzimidazole-6-carbonitrile]", "values": [{"measurement": "IC50", "value": "10 to 50", "unit": "nM"}]}, {"smiles": "Cc1cc(Cl)cnc1N1C[C@@]2(CCC[C@](C)(Cn3cnc4ccc(C#N)cc43)C2)OC1=O", "note": "[Example 121, 1-(((5S,7S)-3-(5-chloro-3-methylpyridin-2-yl)-7-methyl-2-oxo-1-oxa-3-azaspiro[4.5]decan-7-yl)methyl)-1H-benzo[d]imidazole-6-carbonitrile]", "values": [{"measurement": "IC50", "value": "0.1 to 10", "unit": "nM"}]}, {"smiles": "C=C(C)c1cc(N2C[C@@]3(CCC[C@](C)(Cn4cnc5ccc(C#N)cc54)C3)OC2=O)on1", "note": "[Example 56, 1-(((5S,7S)-7-methyl-2-oxo-3-(3-(prop-1-en-2-yl)isoxazol-5-yl)-1-oxa-3-azaspiro[4.5]decan-7-yl)methyl)-1H-benzo[d]imidazole-6-carbonitrile]", "values": [{"measurement": "IC50", "value": "10 to 50", "unit": "nM"}]}, {"smiles": "N#Cc1ccc2nc(C(F)(F)F)n(C[C@H]3CCC[C@]4(C3)CN(Cc3csc5ccc(Cl)cc35)C(=O)O4)c2c1", "note": "(stereo in doubt) [Example 60, 1-({3-[(5-chloro-1-benzothien-3-yl)methyl]-2-oxo-1-oxa-3-azaspiro[4.5]dec-7-yl}methyl)-2-(trifluoromethyl)-1H-benzimidazole-6-carbonitrile]", "values": [{"measurement": "IC50", "value": "50 to 500", "unit": "nM"}]}, {"smiles": "Cc1ccc(N2C[C@@]3(CCC[C@](C)(Cn4cnc5ccc(C#N)cc54)C3)OC2=O)cn1", "note": "[Example 140, 1-(((5S,7S)-7-methyl-3-(6-methylpyridin-3-yl)-2-oxo-1-oxa-3-azaspiro[4.5]decan-7-yl)methyl)-1H-benzo[d]imidazole-6-carbonitrile]", "values": [{"measurement": "IC50", "value": "50 to 500", "unit": "nM"}]}, {"smiles": "CC(C)(CN1C[C@@]2(CCC[C@H](Cn3cnc4ccc(C#N)cc43)C2)OC1=O)c1nc(-c2cncnc2)no1", "note": "[Example 78, 1-[((5S,7S)-3-{2-methyl-2-[3-(5-pyrimidinyl)-1,2,4-oxadiazol-5-yl]propyl}-2-oxo-1-oxa-3-azaspiro[4.5]dec-7-yl)methyl]-1H-benzimidazole-6-carbonitrile]", "values": [{"measurement": "IC50", "value": "0.1 to 10", "unit": "nM"}]}, {"smiles": "Cc1cc(-c2ccc(F)cn2)ncc1N1C[C@@]2(CCC[C@](C)(Cn3cnc4ccc(C#N)cc43)C2)OC1=O", "note": "[Example 165, 1-(((5S,7S)-3-(5′-fluoro-4-methyl-[2,2′-bipyridin]-5-yl)-7-methyl-2-oxo-1-oxa-3-azaspiro[4.5]decan-7-yl)methyl)-1H-benzo[d]imidazole-6-carbonitrile]", "values": [{"measurement": "IC50", "value": "0.1 to 10", "unit": "nM"}]}, {"smiles": "N#Cc1ccc2ncn(C[C@H]3CCC[C@]4(C3)CN(CC3CCN(c5ccccn5)C3)C(=O)O4)c2c1", "note": "(stereo partly drawn) [Example 86, 1-[((5S,7S)-2-oxo-3-{[1-(2-pyridinyl)-3-pyrrolidinyl]methyl}-1-oxa-3-azaspiro[4.5]dec-7-yl)methyl]-1H-benzimidazole-6-carbonitrile]", "values": [{"measurement": "IC50", "value": "50 to 500", "unit": "nM"}]}, {"smiles": "CN(C)c1ncc(N2C[C@@]3(CCC[C@](C)(Cn4cnc5ccc(C#N)cc54)C3)OC2=O)cn1", "note": "[Example 145, 1-(((5S,7S)-3-(2-(dimethylamino)pyrimidin-5-yl)-7-methyl-2-oxo-1-oxa-3-azaspiro[4.5]decan-7-yl)methyl)-1H-benzo[d]imidazole-6-carbonitrile]", "values": [{"measurement": "IC50", "value": "10 to 50", "unit": "nM"}]}, {"smiles": "CCOc1cc(C)c(N2C[C@@]3(CCC[C@](C)(Cn4cnc5ccc(C#N)cc54)C3)OC2=O)cn1", "note": "[Example 118, 1-(((5S,7S)-3-(6-ethoxy-4-methylpyridin-3-yl)-7-methyl-2-oxo-1-oxa-3-azaspiro[4.5]decan-7-yl)methyl)-1H-benzo[d]imidazole-6-carbonitrile]", "values": [{"measurement": "IC50", "value": "0.1 to 10", "unit": "nM"}]}, {"smiles": "N#Cc1cc(Cl)c2ncn(C[C@H]3CCC[C@]4(C3)CN(CC3(c5nc(-c6ccccc6)no5)CCOCC3)C(=O)O4)c2c1", "note": "[Example 84, 4-chloro-1-[((5S,7S)-2-oxo-3-{[4-(3-phenyl-1,2,4-oxadiazol-5-yl)tetrahydro-2H-pyran-4-yl]methyl}-1-oxa-3-azaspiro[4.5]dec-7-yl)methyl]-1H-benzimidazole-6-carbonitrile]", "values": [{"measurement": "IC50", "value": "0.1 to 10", "unit": "nM"}]}, {"smiles": "N#Cc1ccc2ncn(C[C@H]3CCC[C@]4(C3)CN(Cc3sc5ncccc5c3Br)C(=O)O4)c2c1", "note": "[Example 153]", "values": [{"measurement": "IC50", "value": "0.1 to 10", "unit": "nM"}]}, {"smiles": "CC(C)(C)n1cc(N2C[C@@]3(CCC[C@](C)(Cn4cnc5ccc(C#N)cc54)C3)OC2=O)cn1", "note": "[Example 43, 1-(((5S,7S)-3-(1-(tert-butyl)-1H-pyrazol-4-yl)-7-methyl-2-oxo-1-oxa-3-azaspiro[4.5]decan-7-yl)methyl)-1H-benzo[d]imidazole-6-carbonitrile]", "values": [{"measurement": "IC50", "value": "10 to 50", "unit": "nM"}]}, {"smiles": "CCOc1cc(C)c(N2C[C@@]3(CCC[C@H](Cn4cnc5cc(F)c(C#N)cc54)C3)OC2=O)cn1", "note": "[Example 125, 1-(((5S,7S)-3-(6-ethoxy-4-methylpyridin-3-yl)-2-oxo-1-oxa-3-azaspiro[4.5]decan-7-yl)methyl)-5-fluoro-1H-benzo[d]imidazole-6-carbonitrile]", "values": [{"measurement": "IC50", "value": "0.1 to 10", "unit": "nM"}]}, {"smiles": "Cc1c(C(C)(C)C)noc1N1C[C@@]2(CCC[C@](C)(Cn3cnc4ccc(C#N)cc43)C2)OC1=O", "note": "[Example 41, 1-(((5S,7S)-3-(3-(tert-butyl)-4-methylisoxazol-5-yl)-7-methyl-2-oxo-1-oxa-3-azaspiro[4.5]decan-7-yl)methyl)-1H-benzo[d]imidazole-6-carbonitrile]", "values": [{"measurement": "IC50", "value": "0.1 to 10", "unit": "nM"}]}, {"smiles": "COc1cc(OC)c(N2C[C@@]3(CCC[C@](C)(Cn4cnc5ccc(C#N)cc54)C3)OC2=O)cn1", "note": "[Example 22, 1-(((5S,7S)-3-(4,6-Dimethoxyipyridin-3-yl)-7-methyl-2-oxo-1-oxa-3-azasbiro[4.5]decan-7-yl)methyl)-1H-benzo[d]imidazole-6-carbonitrile]", "values": [{"measurement": "IC50", "value": "0.1 to 10", "unit": "nM"}]}, {"smiles": "Cn1cc(-c2ccnc(CN3C[C@@]4(CCC[C@](C)(Cn5cnc6ccc(C#N)cc65)C4)OC3=O)c2)cn1", "note": "[Example 160, 1-(((5S,7S)-7-methyl-3-((4-(1-methyl-1H-pyrazol-4-yl)pyridin-2-yl)methyl)-2-oxo-1-oxa-3-azaspiro[4.5]decan-7-yl)methyl)-1H-benzo[d]imidazole-6-carbonitrile]", "values": [{"measurement": "IC50", "value": "0.1 to 10", "unit": "nM"}]}, {"smiles": "C[C@]1(Cn2cnc3ccc(C#N)cc32)CCC[C@@]2(CN(c3ncccc3C(F)(F)F)C(=O)O2)C1", "note": "[Example 26, 1-(((5S,7S)-7-Methyl-2-oxo-3-(3-(trifluoromethyl)pyridin-2-yl)-1-oxa-3-azaspiro[4.5]decan-7-yl)methyl)-1H-benzo[d]imidazole-6-carbonitrile]", "values": [{"measurement": "IC50", "value": "50 to 500", "unit": "nM"}]}, {"smiles": "COc1cccnc1N1C[C@@]2(CCC[C@](C)(Cn3cnc4ccc(C#N)cc43)C2)OC1=O", "note": "[Example 138, 1-({(5S,7S)-7-methyl-3-[3-(methyloxy)-2-pyridinyl]-2-oxo-1-oxa-3-azaspiro[4.5]dec-7-yl}methyl)-1H-benzimidazole-6-carbonitrile]", "values": [{"measurement": "IC50", "value": "50 to 500", "unit": "nM"}]}]}
